According to publication PMC4492579, “Potent and Selective Triazole-Based Inhibitors of the Hypoxia-Inducible Factor Prolyl-Hydroxylases with Activity in the Murine Brain” (PLoS ONE, 2015):
pIC50: −log10 of the molar value.

Tests used:
[1] = target: JMJD3 (KDM6B) (Homo sapiens, UniProt O15054); set-up: method as in PMID 26682036; conditions: cited from earlier work
[2] = target: JARID1C (KDM5C) (Homo sapiens, UniProt P41229); set-up: method as in PMID 26682036; conditions: cited from earlier work
Chain of JARID1C (KDM5C) (P41229 whole entry): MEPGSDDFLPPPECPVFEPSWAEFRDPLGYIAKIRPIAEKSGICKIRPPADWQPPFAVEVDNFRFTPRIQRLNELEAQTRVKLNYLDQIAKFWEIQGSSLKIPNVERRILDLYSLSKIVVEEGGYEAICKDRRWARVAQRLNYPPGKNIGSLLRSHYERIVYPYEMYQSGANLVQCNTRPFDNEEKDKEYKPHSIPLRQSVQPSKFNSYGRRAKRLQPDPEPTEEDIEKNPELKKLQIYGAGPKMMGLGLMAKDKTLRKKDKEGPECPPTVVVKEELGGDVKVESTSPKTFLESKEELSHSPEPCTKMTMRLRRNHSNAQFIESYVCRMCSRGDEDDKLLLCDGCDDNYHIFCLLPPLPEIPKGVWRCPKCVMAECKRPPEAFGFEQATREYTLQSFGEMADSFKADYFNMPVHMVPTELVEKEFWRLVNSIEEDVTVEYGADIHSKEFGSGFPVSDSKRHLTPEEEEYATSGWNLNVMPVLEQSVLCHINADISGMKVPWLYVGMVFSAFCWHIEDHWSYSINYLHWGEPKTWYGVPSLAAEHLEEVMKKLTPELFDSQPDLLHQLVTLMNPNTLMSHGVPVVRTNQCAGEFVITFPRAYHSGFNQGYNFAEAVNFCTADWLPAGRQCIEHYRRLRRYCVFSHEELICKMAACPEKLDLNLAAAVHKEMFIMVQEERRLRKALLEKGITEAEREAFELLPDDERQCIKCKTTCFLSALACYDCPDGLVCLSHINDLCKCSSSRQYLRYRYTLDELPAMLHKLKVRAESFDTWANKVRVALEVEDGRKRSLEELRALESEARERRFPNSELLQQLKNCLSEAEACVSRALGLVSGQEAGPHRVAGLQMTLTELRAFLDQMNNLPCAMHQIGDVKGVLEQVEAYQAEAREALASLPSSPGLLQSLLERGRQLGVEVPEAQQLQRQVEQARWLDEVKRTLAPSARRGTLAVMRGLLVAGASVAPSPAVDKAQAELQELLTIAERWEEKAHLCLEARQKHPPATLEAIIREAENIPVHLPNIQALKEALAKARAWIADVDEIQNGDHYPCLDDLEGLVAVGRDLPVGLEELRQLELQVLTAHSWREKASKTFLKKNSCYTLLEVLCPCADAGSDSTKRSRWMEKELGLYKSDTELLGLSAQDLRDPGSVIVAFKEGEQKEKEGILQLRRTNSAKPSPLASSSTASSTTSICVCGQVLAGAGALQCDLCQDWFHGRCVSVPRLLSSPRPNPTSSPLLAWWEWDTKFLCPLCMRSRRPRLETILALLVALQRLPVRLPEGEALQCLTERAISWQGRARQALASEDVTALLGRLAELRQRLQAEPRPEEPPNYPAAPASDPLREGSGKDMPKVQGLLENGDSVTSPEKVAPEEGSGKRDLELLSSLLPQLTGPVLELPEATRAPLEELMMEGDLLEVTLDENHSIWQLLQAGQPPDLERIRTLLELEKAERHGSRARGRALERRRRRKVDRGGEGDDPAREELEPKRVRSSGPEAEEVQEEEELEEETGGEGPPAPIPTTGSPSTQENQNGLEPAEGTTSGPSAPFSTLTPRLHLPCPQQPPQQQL

[3] = target: FIH (Homo sapiens, UniProt Q9NWT6); assay: FIH liquid chromatography-mass spectrometry assay (RapidFire)
Chain of FIH (Q9NWT6 whole entry): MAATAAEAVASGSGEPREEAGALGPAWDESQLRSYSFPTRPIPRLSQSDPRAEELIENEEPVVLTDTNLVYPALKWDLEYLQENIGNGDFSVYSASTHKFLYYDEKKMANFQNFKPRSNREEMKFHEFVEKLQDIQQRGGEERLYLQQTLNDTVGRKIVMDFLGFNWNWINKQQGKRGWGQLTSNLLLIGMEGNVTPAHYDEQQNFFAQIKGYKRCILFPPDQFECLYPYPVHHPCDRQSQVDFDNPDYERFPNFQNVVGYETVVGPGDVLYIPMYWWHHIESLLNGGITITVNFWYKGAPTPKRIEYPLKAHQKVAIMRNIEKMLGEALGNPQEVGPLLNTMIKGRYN
Protocol: After 15 minutes, the enzyme reaction was stopped by the addition of 4 ml 10% formic acid and the reaction mixture transferred to a RapidFire RF360 high throughput sampling robot. Samples were aspirated under vacuum onto a C4 Solid Phase Extraction (SPE) cartridge. […] Ion chromatogram data was extracted for the non-hydroxylated peptide substrate and the hydroxylated peptide product and peak area data for extracted ion chromatograms were integrated using RapidFire Integrator software. Percentage conversion of substrate to product was calculated in Microsoft Excel and IC50 values were calculated using Graphpad Prism 5.

[4] = tested on: HIF target genes; assay: qRT-PCR of HIF target genes in mouse brain; type: in vivo, C57BL/6 mice; conditions: 1 h treatment
Protocol: All animal experiments were performed on male C57BL/6 mice aged 3 months (purchased from Harlan Laboratories, Blackthorn) housed in specific pathogen free conditions with free access to water and standard chow. Mice were injected intraperitonially with the inhibitor (dissolved in Hanks’ buffered saline solution, pH 7.0, 5% DMSO final) or vehicle at the indicated doses for the indicated time as previously described. Tissues from treated mice were harvested and ‘snap frozen’ with liquid nitrogen before being stored at -80°C. For immunoblotting, a portion of the tissues was removed, weighed and homogenised in urea/SDS buffer before being analysed by immunoblotting with HIF1α rabbit polyclonal antibody (10006421, Cayman Chemical, 1:1000) or HIF2α rabbit polyclonal antibody (PM9 [27], 1:1000). […]
Genomic DNA were removed from total RNA preparation using the TURBO DNA-free kit (AM1907, Life Technologies) according to manufacturer’s protocol. […] Relative quantifications were calculated using the ∆∆Ct method normalised to β-actin. […]
To investigate whether the induction of HIFα in the mouse brain has an effect on HIF target genes, we performed quantitative real-time PCR (qRT-PCR) analyses on HIF target genes (including those involved in angiogenesis, i.e. Vegfa, Adm and Il6).

[5] = target: T1, JMJD1A (KDM3A) (Homo sapiens, UniProt Q9Y4C1); assay: KDM AlphaScreen assay, JMJD1A
T1 sequence (Q9Y4C1 1-1321): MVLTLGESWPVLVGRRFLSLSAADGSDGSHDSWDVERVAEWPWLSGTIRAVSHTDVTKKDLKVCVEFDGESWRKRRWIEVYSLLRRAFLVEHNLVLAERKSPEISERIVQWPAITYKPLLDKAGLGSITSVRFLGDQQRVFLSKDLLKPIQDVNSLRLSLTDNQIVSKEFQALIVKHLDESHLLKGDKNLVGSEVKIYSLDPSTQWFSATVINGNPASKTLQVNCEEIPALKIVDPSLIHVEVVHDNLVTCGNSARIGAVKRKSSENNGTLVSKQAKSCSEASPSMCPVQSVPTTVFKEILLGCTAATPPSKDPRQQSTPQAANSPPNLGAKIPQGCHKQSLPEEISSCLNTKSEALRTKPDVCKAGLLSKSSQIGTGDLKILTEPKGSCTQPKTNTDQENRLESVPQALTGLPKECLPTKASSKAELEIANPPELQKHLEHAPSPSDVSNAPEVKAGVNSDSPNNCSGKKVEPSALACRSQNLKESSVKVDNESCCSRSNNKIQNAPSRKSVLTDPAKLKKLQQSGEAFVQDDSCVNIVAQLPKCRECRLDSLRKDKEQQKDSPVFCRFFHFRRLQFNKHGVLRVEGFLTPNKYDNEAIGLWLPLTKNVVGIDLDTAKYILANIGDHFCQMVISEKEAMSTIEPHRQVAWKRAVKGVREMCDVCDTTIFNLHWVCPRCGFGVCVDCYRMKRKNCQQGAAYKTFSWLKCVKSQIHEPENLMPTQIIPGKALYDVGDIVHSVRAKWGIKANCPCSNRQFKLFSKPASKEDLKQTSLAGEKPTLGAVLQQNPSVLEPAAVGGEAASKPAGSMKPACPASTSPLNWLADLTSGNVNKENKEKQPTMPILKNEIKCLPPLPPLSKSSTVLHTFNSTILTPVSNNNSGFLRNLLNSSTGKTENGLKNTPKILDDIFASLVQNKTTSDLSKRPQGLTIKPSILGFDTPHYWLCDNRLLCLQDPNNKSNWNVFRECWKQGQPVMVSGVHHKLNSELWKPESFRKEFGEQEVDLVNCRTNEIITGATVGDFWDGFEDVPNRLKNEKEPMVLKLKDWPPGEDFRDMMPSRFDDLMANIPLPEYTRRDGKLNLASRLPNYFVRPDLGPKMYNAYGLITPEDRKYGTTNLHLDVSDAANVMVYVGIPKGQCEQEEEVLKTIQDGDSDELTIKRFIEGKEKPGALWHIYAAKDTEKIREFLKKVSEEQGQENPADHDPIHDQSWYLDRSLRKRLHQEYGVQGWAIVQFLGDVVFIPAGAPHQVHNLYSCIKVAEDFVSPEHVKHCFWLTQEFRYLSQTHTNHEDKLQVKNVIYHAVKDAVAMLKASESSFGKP
Protocol: Inhibition assays for PHD2 (AlphaScreen) [9], the KDMs (AlphaScreen) [17], BBOX [18] and FTO [19] were carried out as previously described. […] IC50 values were calculated using nonlinear regression with normalized dose-response fit using GraphPad Prism 5.

Chain of JMJD3 (KDM6B) (O15054 whole entry): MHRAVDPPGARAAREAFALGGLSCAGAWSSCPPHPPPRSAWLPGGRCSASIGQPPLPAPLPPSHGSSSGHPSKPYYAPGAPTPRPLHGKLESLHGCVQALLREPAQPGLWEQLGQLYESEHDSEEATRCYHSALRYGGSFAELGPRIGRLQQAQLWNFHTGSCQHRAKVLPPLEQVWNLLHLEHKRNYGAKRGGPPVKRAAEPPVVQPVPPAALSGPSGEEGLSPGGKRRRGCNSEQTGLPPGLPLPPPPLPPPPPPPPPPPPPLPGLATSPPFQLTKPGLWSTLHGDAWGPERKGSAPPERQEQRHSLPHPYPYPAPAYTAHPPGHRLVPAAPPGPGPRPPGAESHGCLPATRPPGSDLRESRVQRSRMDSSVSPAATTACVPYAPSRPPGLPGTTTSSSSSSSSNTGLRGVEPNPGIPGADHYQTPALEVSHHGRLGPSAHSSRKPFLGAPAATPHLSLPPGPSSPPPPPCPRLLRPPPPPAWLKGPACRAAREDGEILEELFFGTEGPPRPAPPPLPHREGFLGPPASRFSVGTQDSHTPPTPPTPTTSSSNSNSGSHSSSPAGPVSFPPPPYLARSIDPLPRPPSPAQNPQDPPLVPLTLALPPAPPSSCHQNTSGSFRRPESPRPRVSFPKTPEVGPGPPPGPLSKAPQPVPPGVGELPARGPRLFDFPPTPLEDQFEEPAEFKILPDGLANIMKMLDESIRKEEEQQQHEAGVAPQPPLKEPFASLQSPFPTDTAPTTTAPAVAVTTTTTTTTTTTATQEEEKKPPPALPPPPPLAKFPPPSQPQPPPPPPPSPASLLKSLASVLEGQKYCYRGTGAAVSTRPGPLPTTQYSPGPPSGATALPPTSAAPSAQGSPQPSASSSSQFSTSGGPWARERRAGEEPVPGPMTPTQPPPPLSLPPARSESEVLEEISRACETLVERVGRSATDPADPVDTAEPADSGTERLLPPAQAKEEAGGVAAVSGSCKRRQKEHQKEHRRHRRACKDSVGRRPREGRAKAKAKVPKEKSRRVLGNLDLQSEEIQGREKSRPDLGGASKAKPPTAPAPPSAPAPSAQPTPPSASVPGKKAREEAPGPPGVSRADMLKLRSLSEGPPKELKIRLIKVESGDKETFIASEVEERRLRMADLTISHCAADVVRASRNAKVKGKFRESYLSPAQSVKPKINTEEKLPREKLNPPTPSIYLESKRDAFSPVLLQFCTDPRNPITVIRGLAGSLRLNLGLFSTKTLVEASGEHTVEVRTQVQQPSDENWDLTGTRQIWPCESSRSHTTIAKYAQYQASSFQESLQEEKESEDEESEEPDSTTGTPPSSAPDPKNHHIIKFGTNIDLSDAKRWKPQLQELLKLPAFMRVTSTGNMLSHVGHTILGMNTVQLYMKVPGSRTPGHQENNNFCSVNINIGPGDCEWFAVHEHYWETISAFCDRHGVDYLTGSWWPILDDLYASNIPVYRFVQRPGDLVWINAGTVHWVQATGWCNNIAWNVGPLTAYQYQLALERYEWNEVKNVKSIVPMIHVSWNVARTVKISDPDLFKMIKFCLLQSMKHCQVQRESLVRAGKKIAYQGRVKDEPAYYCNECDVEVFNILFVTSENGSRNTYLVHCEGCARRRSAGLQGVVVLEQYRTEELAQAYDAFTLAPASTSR

Row | Compound | pIC50 [1] | pIC50 [2] | pIC50 [3] | mRNA levels of HIF target genes Bnip3, Ldha and Il6 in mouse brain [4] | mRNA levels of HIF target genes Epo, Vegfa and Adm in mouse brain [4] | pIC50 [5]
1 | O=C(O)CNC(=O)c1c(O)c2ccccc2n(Cc2ccccc2)c1=O [IOX2] | < 4.00 | 3.80 | < 4.00 | – | – | –
2 | CC(C)(C)OC(=O)c1ccc(-n2[nH]cc(-n3ccnn3)c2=O)nc1 [IOX4, t-Butyl 6-(5-oxo-4-(1H-1,2,3-triazol-1-yl)-2,5-dihydro-1H-pyrazol-1-yl)nicotinate] | – | – | – | remain unaffected | induced in a dose-dependent manner | < 4.70
